Assay results taken from US8828985B2, “Carbamate and urea inhibitors of 11-beta-hydroxysteroid dehydrogenase 1” (Vitae Pharmaceuticals, Inc., priority 2008, dated 2014).
Like-named read-outs stand apart in the source and are kept apart here.

Target: human 11β-HSD1 (Homo sapiens, UniProt P28845)
Assay: biochemical
Details: for IC50: Biological Test Example 2 IC50 Range, microsomes from CHO cells overexpressing human 11β-HSD1, SPA; for inhibition at 0.1 µM / inhibition at 0.111 µM: 1.5 h
[1] = read-out: Biological Test Example 2 Average % inhibition at 100 nm, at 100 nm
[2] = read-out: Biological Test Example 2 Average % inhibition at 111 nm, at 111 nm

Chain of human 11β-HSD1 (P28845 whole entry): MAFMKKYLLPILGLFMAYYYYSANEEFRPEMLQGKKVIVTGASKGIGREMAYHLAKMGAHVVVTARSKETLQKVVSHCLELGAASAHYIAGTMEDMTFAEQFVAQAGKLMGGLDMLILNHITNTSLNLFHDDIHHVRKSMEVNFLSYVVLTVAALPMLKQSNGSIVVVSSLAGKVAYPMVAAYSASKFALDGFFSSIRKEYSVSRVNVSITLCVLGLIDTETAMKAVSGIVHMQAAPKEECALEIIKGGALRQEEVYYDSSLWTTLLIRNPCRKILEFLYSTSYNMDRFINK
Experimental: All reactions are carried out at room temperature in 96 well clear flexible PET Microbeta plates (PerkinElmer). […] The reaction is stopped by adding 50 μl of the SPA beads suspension containing 10 μM 18β-glycyrrhetinic acid, 5 mg/ml protein A coated YSi SPA beads (GE Healthcare) and 3.3 μg/ml of anti-cortisol antibody (East Coast Biologics) in Superblock buffer (Bio-Rad). The plates are then shaken for 120 minutes at room temperature, and the SPA signal corresponding to [^3H]cortisol is measured on a Microbeta plate reader.

| IC50 | inhibition at 0.1 µM [1] | inhibition at 0.111 µM [2] | SMILES | inhibition at 0.111 µM (read-out: Biological Test Example 2 Average % inhibition at 111 nm) | inhibition at 0.1 µM (read-out: Biological Test Example 2 Average % inhibition at 100 nm) |
| --- | --- | --- | --- | --- | --- |
| < 100 nM | 91.1% |  | CNC(=O)c1cc(Cl)cnc1N[C@@H]1CCN(C(=O)O[C@H]2C3CC4CC2C[C@](O)(C4)C3)C1 [Example 98, (R)-(trans-1-hydroxy-4-adamantyl) 3-(5-chloro-3-(methylcarbamoyl)pyridin-2-ylamino)pyrrolidine-1-carboxylate] |  |  |
| < 100 nM | 97% |  | CC1(Nc2ncccc2C#N)CCN(C(=O)O[C@H]2C3CC4CC2C[C@](C(N)=O)(C4)C3)C1 (stereo partly drawn) [Example 67, (trans-1-carbamoyl-4-adamantyl) 3-(3-cyanopyridin-2-ylamino)-3-methylpyrrolidine-1-carboxylate] |  |  |
| < 100 nM | 97.1% |  | N#Cc1ccc(N[C@H]2CCN(C(=O)O[C@H]3C4CC5CC3C[C@](C(N)=O)(C5)C4)C2)nc1 [Example 65, (S)-(trans-1-carbamoyl-4-adamantyl) 3-(5-cyanopyridin-2-ylamino)pyrrolidine-1-carboxylate] |  |  |
| < 100 nM |  | 83.3% | CC(C)(C)OC(=O)NC1(c2ccccc2)CCN(C(=O)NC2C3CC4CC(C3)CC2C4)C1 (stereo not shown) [Example 60, tert-butyl 1-(2-adamantylcarbamoyl)-3-phenylpyrrolidin-3-ylcarbamate] |  |  |
| < 100 nM |  |  | CC(C)(C)OC(=O)N1C[C@@H]2C[C@H]1CN2C(=O)OC1C2CC3CC(C2)CC1C3 (stereo partly drawn) [Example 7, (1S,4S)-2-tert-butyl 5-(2-adamantyl)-2,5-diazabicyclo[2.2.1]heptane-2,5-dicarboxylate] |  |  |
| > 100 nM | 32.2% |  | CNC(=O)c1cnc(N[C@@H]2CCN(C(=O)O[C@H]3C4CC5CC3C[C@](O)(C5)C4)C2)nc1 [Example 110, (R)-(trans-1-hydroxy-4-adamantyl) 3-(5-(methylcarbamoyl)pyrimidin-2-ylamino)pyrrolidine-1-carboxylate] |  |  |
| < 100 nM | 63.6% |  | N#Cc1ccc2nc(N[C@@H]3CCN(C(=O)O[C@H]4C5CC6CC4C[C@](O)(C6)C5)C3)cnc2c1 [Example 91, (R)-(trans-1-hydroxy-4-adamantyl) 3-(6-cyanoquinoxalin-2-ylamino)pyrrolidine-1-carboxylate] |  |  |
| < 100 nM | 97.2% |  | CN(c1ncccc1C(F)(F)F)C1CCN(C(=O)O[C@H]2C3CC4CC2C[C@](C(N)=O)(C4)C3)C1 (stereo partly drawn) [Example 44, (trans-1-carbamoyl-4-adamantyl) 3-(methyl(3-(trifluoromethyl)pyridin-2-yl)amino)pyrrolidine-1-carboxylate] |  |  |
| < 100 nM | 54.4% |  | N#Cc1cncc(N[C@@H]2CCN(C(=O)O[C@H]3C4CC5CC3C[C@](O)(C5)C4)C2)n1 [Example 81, (R)-(trans-1-hydroxy-4-adamantyl) 3-(6-cyanopyrazin-2-ylamino)pyrrolidine-1-carboxylate] |  |  |
| > 100 nM | 9.1% |  | N#Cc1ccc(N[C@@H]2CCN(C(=O)OC3C4CC5CC3CC(C(=O)NC3CC3)(C5)C4)C2)nc1 (single isomer, unassigned) [Example 118 Isomer 1] |  |  |
| < 100 nM | 101% |  | N#Cc1ccc(N[C@@H]2CCN(C(=O)O[C@H]3C4CC5CC3C[C@](C(N)=O)(C5)C4)C2)nc1 [Example 35, (R)-(trans-1-carbamoyl-4-adamantyl) 3-(5-cyanopyridin-2-ylamino)pyrrolidine-1-carboxylate] |  |  |
| < 100 nM | 95.5% |  | N#Cc1cccnc1N[C@H]1CCN(C(=O)O[C@H]2C3CC4CC2C[C@](C(N)=O)(C4)C3)C1 [Example 66, (S)-(trans-1-carbamoyl-4-adamantyl) 3-(3-cyanopyridin-2-ylamino)pyrrolidine-1-carboxylate] |  |  |
| < 100 nM | 97.8% | 96.5% | CN(c1ccc(C#N)cn1)C1CCN(C(=O)O[C@H]2C3CC4CC2C[C@](C(N)=O)(C4)C3)C1 (stereo partly drawn) [Example 74, (trans-1-carbamoyl-4-adamantyl) 3-((5-cyanopyridin-2-yl)(methyl)amino)pyrrolidine-1-carboxylate] |  |  |
| < 100 nM | 97.9% | 101% | N#Cc1ccc(N2CCC3CN(C(=O)O[C@H]4C5CC6CC4C[C@](C(N)=O)(C6)C5)CC32)nc1 (stereo partly drawn) [Example 76, (trans-1-carbamoyl-4-adamantyl) 1-(5-cyanopyridin-2-yl)hexahydropyrrolo[3,4-b]pyrrole-5(1H)-carboxylate] |  |  |
| < 100 nM |  | 74.6% | CC(C)OC(=O)N[C@@H]1CCN(C(=O)NC2C3CC4CC(C3)CC2C4)C1 (stereo partly drawn) [Example 49, (R)-isopropyl 1-((2-adamantyl)carbamoyl)pyrrolidin-3-ylcarbamate] |  |  |
| < 100 nM | 84.2% | 82.6% | NC(=O)C1CC2CCCC(C1)C2OC(=O)N1CC[C@@H](Nc2ccc(C(F)(F)F)cn2)C1 (stereo partly drawn) [Example 71, (3R)-3-carbamoylbicyclo[3.3.1]nonan-9-yl 3-(5-(trifluoromethyl)pyridin-2-ylamino)pyrrolidine-1-carboxylate] |  |  |
| < 100 nM | 88.8% |  | O=C(NC1CC1)c1ccc2nc(N[C@@H]3CCN(C(=O)O[C@H]4C5CC6CC4C[C@](O)(C6)C5)C3)sc2c1 [Example 103, (R)-(trans-1-hydroxy-4-adamantyl) 3-(6-(cyclopropylcarbamoyl)benzo[d]thiazol-2-ylamino)pyrrolidine-1-carboxylate] |  |  |
| < 100 nM |  | 92.9% | CC(C)COC(=O)N[C@@H]1CCN(C(=O)NC2C3CC4CC(C3)CC2C4)C1 (stereo partly drawn) [Example 50, (R)-isobutyl 1-((2-adamantyl)carbamoyl)pyrrolidin-3-ylcarbamate] |  |  |
| < 100 nM | 95.2% |  | NC(=O)C12CC3CC(C1)C(OC(=O)N1CC[C@@H](Nc4ccc(F)cn4)C1)C(C3)C2 (stereo partly shown) [Example 115] |  |  |
| < 100 nM | 71.6% |  | Cc1nc(N[C@@H]2CCN(C(=O)O[C@H]3C4CC5CC3C[C@](O)(C5)C4)C2)ccc1C#N [Example 84, (R)-(trans-1-hydroxy-4-adamantyl) 3-(5-cyano-6-methylpyridin-2-ylamino)pyrrolidine-1-carboxylate] |  |  |
| < 100 nM | 98.7% |  | CC1(Nc2ccc(C#N)cn2)CCN(C(=O)O[C@H]2C3CC4CC2C[C@](C(N)=O)(C4)C3)C1 (stereo partly drawn) [Example 69, (trans-1-carbamoyl-4-adamantyl) 3-(5-cyanopyridin-2-ylamino)-3-methylpyrrolidine-1-carboxylate] |  |  |
| < 100 nM | 82.6% |  | O=C(NC1CC1)c1cc(Cl)cnc1N[C@@H]1CCN(C(=O)O[C@H]2C3CC4CC2C[C@](O)(C4)C3)C1 [Example 101, (R)-(trans-1-hydroxy-4-adamantyl) 3-(5-chloro-3-(cyclopropylcarbamoyl)pyridin-2-ylamino)pyrrolidine-1-carboxylate] |  |  |
| < 100 nM | 98.4% |  | NC(=O)C12CC3CC(C1)C(OC(=O)N1CC[C@@H](Nc4ncccc4F)C1)C(C3)C2 (stereo partly drawn) [Example 63, (R)-(trans-1-carbamoyl-4-adamantyl) 3-(3-fluoropyridin-2-ylamino)pyrrolidine-1-carboxylate] |  |  |
| < 100 nM | 79.3% |  | NC(=O)[C@]12CC3CC(C1)[C@@H](OC(=O)N1CC[C@@H](Nc4nnc(C(F)(F)F)s4)C1)C(C3)C2 [Example 42, (R)-(trans-1-carbamoyl-4-adamantyl) 3-(5-(trifluoromethyl)-1,3,4-thiadiazol-2-ylamino)pyrrolidine-1-carboxylate] |  |  |
| < 100 nM | 86.6% |  | N#Cc1cnc(N[C@@H]2CCN(C(=O)O[C@H]3C4CC5CC3C[C@](O)(C5)C4)C2)s1 [Example 82, (R)-(trans-1-hydroxy-4-adamantyl) 3-(5-cyanothiazol-2-ylamino)pyrrolidine-1-carboxylate] |  |  |
| < 100 nM | 97.7% |  | CN(c1cccc(C(F)(F)F)n1)C1CCN(C(=O)OC2C3CC4CC2CC(C(N)=O)(C4)C3)C1 (stereo not drawn) [Example 45, (trans-1-carbamoyl-4-adamantyl) 3-(methyl(6-(trifluoromethyl)pyridin-2-yl)amino)pyrrolidine-1-carboxylate] |  |  |

| SMILES | IC50 | inhibition at 0.1 µM [1] | inhibition at 0.111 µM [2] | inhibition at 0.111 µM (read-out: Biological Test Example 2 Average % inhibition at 111 nm) | inhibition at 0.1 µM (read-out: Biological Test Example 2 Average % inhibition at 100 nm) |
| --- | --- | --- | --- | --- | --- |
| COC(=O)c1cnc(N[C@@H]2CCN(C(=O)O[C@H]3C4CC5CC3C[C@](O)(C5)C4)C2)nc1 [Example 107, Methyl 2-((R)-1-((trans-1-hydroxy-4-adamantyloxy)carbonyl)pyrrolidin-3-ylamino)pyrimidine-5-carboxylate] | < 100 nM |  |  |  |  |
| N#Cc1cccnc1N[C@@H]1CCN(C(=O)O[C@H]2C3CC4CC2C[C@](O)(C4)C3)C1 [Example 80, (R)-(trans-1-hydroxy-4-adamantyl) 3-(3-cyanopyridin-2-ylamino)pyrrolidine-1-carboxylate] | < 100 nM |  |  |  |  |
| CC(C)(C)OC(=O)NC1(C(F)(F)F)CCN(C(=O)O[C@H]2C3CC4CC2C[C@](C(N)=O)(C4)C3)C1 (stereo partly drawn) [Example 113, (trans-1-carbamoyl-4-adamantyl) 3-(tert-butoxycarbonylamino)-3-(trifluoromethyl)pyrrolidine-1-carboxylate] | < 100 nM | 92% |  |  |  |
| CCOC(=O)C1(Nc2ccccc2)CCN(C(=O)NC2C3CC4CC(C3)CC2C4)CC1 (stereo not shown) [Example 59, Ethyl 1-(2-adamantylcarbamoyl)-4-(phenylamino)piperidine-4-carboxylate] | 100 to 1000 nM |  |  | 47.5% |  |
| N#Cc1ccc(N[C@@H]2CCN(C(=O)NC3C4CC5CC(C4)CC3C5)C2)nc1 (stereo partly drawn) [Example 61, (R)-3-(5-cyanopyridin-2-ylamino)-N-(2-adamantyl)pyrrolidine-1-carboxamide] | < 100 nM |  |  |  | 97.6% |
| CC(C)(C)OC(=O)NC1(c2ccccc2)CCN(C(=O)OC2C3CC4CC(C3)CC2C4)C1 (stereo not shown) [Example 13, (2-adamantyl) 3-(tert-butoxycarbonylamino)-3-phenylpyrrolidine-1-carboxylate] | < 100 nM | 87.7% |  |  |  |
